Source: ChEMBL document CHEMBL1201862, “PubChem BioAssay data set” (2004)
Active and inactive are the calls of the source.

How the values were obtained:
H4 = test: Luminescence Cell-Based Dose Response HTS to Identify Activators of 5'UTR Stem-Loop Driven Prion Protein mRNA Translation in H4 Neuroglioblastoma Cells. [Related pubchem assays: 1829 (Project Summary), 1814 (Primary HTS)]; type: functional; details: Homo sapiens
[1] = Trypanosoma cruzi growth suppression in host cells – NIH3T3 host cells, beta-gal luminescence, confirmation (AID 2044); type: functional, cell-based;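 also: intracellular parasites grown in NIH/3T3 mouse fibroblasts as host cells; luminescent beta-galactosidase reporter signal from transgenic T. cruzi replicating inside host cells; inhibitors lower the luminescence signal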
[2] = NIH3T3 cell viability loss – ATP luminescence, mouse fibroblasts, counter-screen, dose response (AID 2010); type: functional, cell-based;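 also: cells exposed to compound for about 90 hours before reading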
[3] = Luminescence Cell-Based Dose Response HTS to Identify Activators of Luciferase Translation or Activity in H4 […] Cells. [Related pubchem assays: 1829 (Project Summary), 1814 (Primary HTS)]; type: functional
Cytochrome P450 2C19 = Cytochrome P450 2C19 (Homo sapiens, UniProt P33261); test: Cytochrome panel assay with activity outcomes. Panel member name: p450-cyp2c19 Compounds with AC50 equal or less than 10 uM are considered active; type: functional
Cytochrome P450 2C9 = Cytochrome P450 2C9 (Homo sapiens, UniProt P11712)
Cytochrome P450 3A4 = Cytochrome P450 3A4 (Homo sapiens, UniProt P08684);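 also: CYP3A4 tested as one member of a cytochrome P450 panel screen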
Sequence of Cytochrome P450 3A4 (P08684 whole entry): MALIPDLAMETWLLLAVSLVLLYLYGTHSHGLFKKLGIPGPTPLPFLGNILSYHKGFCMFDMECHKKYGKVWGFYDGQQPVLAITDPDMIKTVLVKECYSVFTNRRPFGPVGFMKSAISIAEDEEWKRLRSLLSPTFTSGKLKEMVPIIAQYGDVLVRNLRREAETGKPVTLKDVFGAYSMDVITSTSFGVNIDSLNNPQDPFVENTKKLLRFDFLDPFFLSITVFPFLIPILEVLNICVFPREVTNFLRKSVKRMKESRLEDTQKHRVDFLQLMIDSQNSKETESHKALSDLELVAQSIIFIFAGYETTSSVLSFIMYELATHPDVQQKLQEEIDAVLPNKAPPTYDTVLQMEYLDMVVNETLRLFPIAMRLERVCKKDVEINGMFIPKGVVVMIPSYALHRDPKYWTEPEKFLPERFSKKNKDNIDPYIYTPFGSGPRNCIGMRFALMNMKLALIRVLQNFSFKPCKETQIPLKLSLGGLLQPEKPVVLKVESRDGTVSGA

Sequence of Cytochrome P450 2C19 (P33261 whole entry): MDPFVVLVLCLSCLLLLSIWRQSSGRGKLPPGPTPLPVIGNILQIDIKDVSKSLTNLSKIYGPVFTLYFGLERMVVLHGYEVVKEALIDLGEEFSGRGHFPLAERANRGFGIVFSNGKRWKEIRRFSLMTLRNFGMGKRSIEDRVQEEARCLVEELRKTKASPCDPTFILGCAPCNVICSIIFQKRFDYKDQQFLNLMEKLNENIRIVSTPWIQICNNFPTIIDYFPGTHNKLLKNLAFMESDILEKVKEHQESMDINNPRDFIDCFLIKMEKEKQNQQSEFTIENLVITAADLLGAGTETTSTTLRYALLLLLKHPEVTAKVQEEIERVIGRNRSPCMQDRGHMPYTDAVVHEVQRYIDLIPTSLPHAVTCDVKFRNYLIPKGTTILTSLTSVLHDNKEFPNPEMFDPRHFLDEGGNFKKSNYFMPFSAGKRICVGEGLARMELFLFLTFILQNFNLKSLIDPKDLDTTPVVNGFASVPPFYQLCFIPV
Sequence of Cytochrome P450 2C9 (P11712 whole entry): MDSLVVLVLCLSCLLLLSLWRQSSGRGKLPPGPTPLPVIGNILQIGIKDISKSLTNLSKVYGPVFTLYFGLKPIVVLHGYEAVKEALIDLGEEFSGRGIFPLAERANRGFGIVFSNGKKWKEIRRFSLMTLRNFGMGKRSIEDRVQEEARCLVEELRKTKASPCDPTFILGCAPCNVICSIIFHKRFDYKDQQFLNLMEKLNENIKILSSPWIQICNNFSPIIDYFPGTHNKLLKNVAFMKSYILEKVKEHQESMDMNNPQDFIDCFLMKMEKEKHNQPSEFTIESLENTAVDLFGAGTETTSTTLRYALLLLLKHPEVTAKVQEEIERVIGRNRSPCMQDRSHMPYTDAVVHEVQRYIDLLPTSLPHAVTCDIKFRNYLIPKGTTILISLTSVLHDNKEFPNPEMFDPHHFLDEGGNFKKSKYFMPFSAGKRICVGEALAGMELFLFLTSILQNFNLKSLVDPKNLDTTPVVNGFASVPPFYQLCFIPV

Cc1ccc(-n2c(C)cc(C(=O)COC(=O)c3cccnc3O)c2C)cc1
EC50 (H4): > 120 µM (not active)

Cc1ccsc1C(=O)C1CCCN(Cc2cnc(N3CCOCC3)s2)C1 (stereo not drawn)
EC50 [1]: 0.146 µM (active) | EC50 [2]: > 60 µM (not active)

Cc1cc(/C=C(\C#N)C(=O)NC2CC2)c(C)[nH]1
EC50 [3]: 0.857 µM (active) | EC50 (H4): > 120 µM (not active)

CN[C@@H](c1ccncc1)[C@@H](NC)c1ccncc1
AC50 (Cytochrome P450 2C19; read-out: AC50): 3.16 µM (inconclusive)

Cc1cccc(C(=O)c2ccccc2C(=O)O)c1O
AC50 (Cytochrome P450 2C9): 0.1 µM (inconclusive) | AC50 (Cytochrome P450 3A4): 25.1 µM (inconclusive)

c1ccc(Cn2c3ccccc3c3nnc(SCCN4CCCCC4)nc32)cc1
EC50 [1]: 0.489 µM (active) | EC50 [2]: > 60 µM (not active)

CC1(C)C([N+](=O)[O-])C(c2ccc(Cl)cc2)NC(c2ccc(Cl)cc2)C1[N+](=O)[O-] (stereo not drawn)
EC50 [1]: 2 µM (active) | EC50 [2]: > 60 µM (inconclusive)

COc1ccc(Cc2nc3cc(S(=O)(=O)N4CCOCC4)ccc3[nH]2)cc1OC
AC50 (Cytochrome P450 2C19; read-out: AC50): 25.1 µM (inconclusive)

Cn1c(-c2nnn(-c3ccc(F)cc3)n2)cc2ccccc21
EC50 (H4): 36.6 µM (active)

c1ccc(CNc2ncncc2-c2ccc3c(c2)OCO3)cc1
AC50 (Cytochrome P450 2C9): 0.316 µM (inconclusive)

O=c1c(-c2cccc(F)c2)nc2cncnc2n1-c1ccccc1
AC50 (Cytochrome P450 3A4): 20 µM (inconclusive)

CCOc1ccc(-n2c(SCc3nc(-c4ccc(C)cc4)no3)nnc2-c2ccncc2)cc1
EC50 [1]: 1.31 µM (active) | EC50 [2]: 6.76 µM (active)

COc1ccc(Cc2noc(CN3CCCN(Cc4ccc(F)cc4)CC3)n2)cc1OC
EC50 [1]: 0.248 µM (active) | EC50 [2]: > 60 µM (not active)

N=C(NC(=O)c1ccccc1F)Nc1nc2ccccc2o1
AC50 (Cytochrome P450 2C19; read-out: AC50): 22.4 µM (inconclusive)

OCCN=c1cc(-c2ccccc2)oc2ccc(Cl)cc12
AC50 (Cytochrome P450 3A4): 10 µM (inconclusive)

Cc1ccc(S(=O)(=O)c2nnn3c2nc(NC2CCN(Cc4ccccc4)CC2)c2ccccc23)cc1C
EC50 [1]: 1.24 µM (active) | EC50 [2]: > 30 µM (not active)

COc1ccccc1CN1CCN(Cc2nc(-c3cccs3)no2)CC1
EC50 [1]: 0.841 µM (active) | EC50 [2]: > 60 µM (not active)

Cc1ccc(NC(=O)CN2C(=O)S/C(=C\c3cccn3C)C2=O)cc1
AC50 (Cytochrome P450 3A4): 7.08 µM (inconclusive)

CCn1nnnc1SCC(=O)c1ccc2c(c1)OCCO2
AC50 (Cytochrome P450 2C9): 17.8 µM (inconclusive)

Nc1c(C(=O)Nc2ccccc2)c2nc3ccccc3nc2n1-c1ccc(O)cc1
EC50 [1]: 2.07 µM (active) | EC50 [2]: 15.9 µM (active)

CCOc1ccc(N2C(=O)/C(=C/c3cc(OC)c(OC)c(OC)c3)N(CC(=O)OC)C2=S)cc1
AC50 (Cytochrome P450 2C9): 1.41 µM (inconclusive) | AC50 (Cytochrome P450 3A4): 15.8 µM (inconclusive)

Cn1c(=O)c2c3c(sc2n2cnnc12)CCC3
AC50 (Cytochrome P450 2C19): inconclusive

COc1ccc(C(CC(=O)Nc2cc(OC)cc(OC)c2)n2cccc2)cc1 (stereo not drawn)
EC50 [1]: 2.45 µM (active) | EC50 [2]: > 60 µM (not active)

O=C(CSc1nc(C2CC2)nc2ccccc12)N1c2ccccc2Sc2ccccc21
EC50 [1]: 4.43 µM (active) | EC50 [2]: > 60 µM (not active)

Cc1cccc(N/C=C(\[N+](=O)[O-])S(=O)(=O)c2ccccc2)c1C
EC50 [1]: > 60 µM (not active) | EC50 [2]: > 60 µM (inconclusive)

CCn1c(SCc2ccc(C(=O)Nc3nccs3)cc2)nnc1-c1ccc(NC(C)=O)cc1
AC50 (Cytochrome P450 3A4): 1.12 µM (inconclusive)

COc1ccc2[nH]c3c(c2c1)CCN1C(=O)N([C@@H](C)C(=O)NC2CCN(Cc4ccccc4)CC2)C(=O)[C@]31C
EC50 [1]: 0.122 µM (active) | EC50 [2]: > 60 µM (not active)

CCCC[C@@H]1CN2[C@H](c3ccc(Br)cc3)[C@@H](C)CC[C@H]2C(=O)O1
AC50 (Cytochrome P450 3A4): 5.01 µM (inconclusive)

O=C(O)/C(Cc1ccc([N+](=O)[O-])cc1)=N/O
AC50 (Cytochrome P450 2C19; read-out: AC50): 5.01 µM (inconclusive)

COCCn1c(=O)c(-c2ccccc2)nc2cnc(OCc3ccccc3)nc21
AC50 (Cytochrome P450 2C19; read-out: AC50): 20 µM (inconclusive)

Cc1ccc(N[C@H](c2ccccc2)c2ccc3cccnc3c2O)cc1
AC50 (Cytochrome P450 2C9): 3.98 µM (inconclusive) | AC50 (Cytochrome P450 3A4): 3.16 µM (inconclusive) | AC50 (Cytochrome P450 2C19; read-out: AC50): 3.98 µM (inconclusive)

COc1ccc(S(=O)(=O)N2CCCN(CC(=O)Nc3ccc(OC)c(Cl)c3)CC2)cc1
AC50 (Cytochrome P450 2C9): 39.8 µM (inconclusive)

CCOc1ccc(C(=O)C2=C(O)C(=O)N(CCOCCO)C2c2ccccc2OC)cc1 (stereo not drawn)
AC50 (Cytochrome P450 2C19; read-out: AC50): 25.1 µM (inconclusive)

COc1ccc(/C=C/C(=O)N2c3ccccc3Sc3ccc(C(F)(F)F)cc32)cc1
EC50 [1]: 2.8 µM (active) | EC50 [2]: > 60 µM (not active)

COCCNc1nc(-c2ccccc2C)nc2ccccc12
AC50 (Cytochrome P450 3A4): 12.6 µM (inconclusive)

COc1ccc(C(=O)CCN(C)C)c2ccccc12
AC50 (Cytochrome P450 3A4): 0.316 µM (inconclusive)

Cc1ccc(N=Nc2c(=O)[nH]n3c(C)cc(C)nc23)cc1
AC50 (Cytochrome P450 3A4): 25.1 µM (inconclusive) | AC50 (Cytochrome P450 2C19; read-out: AC50): 39.8 µM (inconclusive)

COc1cccc(CNCCc2cccc(F)c2)c1OC
EC50 [1]: 0.828 µM (active) | EC50 [2]: > 60 µM (not active)

COc1cc(C(=O)NC(=S)Nc2ccc(Cl)c(C(=O)O)c2)cc(OC)c1OC
AC50 (Cytochrome P450 2C9): 28.2 µM (inconclusive)

Cc1ccc2nc(N(CCN(C)C)C(=O)c3ccc4c(c3)OCCO4)sc2c1
EC50 [1]: 0.104 µM (active) | EC50 [2]: > 60 µM (not active)

Cc1ccccc1-c1ccc2ncnc(N(C)C)c2c1
AC50 (Cytochrome P450 2C9): 0.398 µM (inconclusive)

Cc1cc(N2C(=O)C(O)=C(C(=O)c3cccs3)C2c2cccc(O)c2)no1 (stereo not drawn)
AC50 (Cytochrome P450 2C19; read-out: AC50): 31.6 µM (inconclusive)

COCCn1c(=O)c(C)nc2cnc(Oc3ccccc3)nc21
AC50 (Cytochrome P450 3A4): 25.1 µM (inconclusive) | AC50 (Cytochrome P450 2C19; read-out: AC50): 39.8 µM (inconclusive)

CCC1Oc2ccc(C)cc2N(CC(=O)N(Cc2cccnc2)Cc2cccc(F)c2)C1=O (stereo not drawn)
EC50 [1]: 0.145 µM (active) | EC50 [2]: > 60 µM (not active)

O=S(=O)(c1ccccc1)N1CN2CN(C1)CN(S(=O)(=O)c1ccccc1)C2
AC50 (Cytochrome P450 2C9): 0.631 µM (inconclusive)

CC(=O)NCCNc1ncnc2ccc(-c3cccc(NS(C)(=O)=O)c3)cc12
AC50 (Cytochrome P450 3A4): 7.94 µM (inconclusive)

Cn1c(=O)c2c(nc(Cc3ccccc3)n2CC(=O)O)n(C)c1=O
AC50 (Cytochrome P450 2C19): inconclusive

CCCCC1CC(/C(C)=N/NC(N)=O)OC1=O (stereo not drawn)
AC50 (Cytochrome P450 2C9): 20 µM (inconclusive)

COC(=O)Cn1cc(/C=N/NC(=O)c2ccc(C#N)cc2F)c2ccccc21
AC50 (Cytochrome P450 2C9): 8.91 µM (inconclusive) | AC50 (Cytochrome P450 2C19; read-out: AC50): 22.4 µM (inconclusive)

O=C(N/N=C/c1c(Nc2cccc(C(F)(F)F)c2)nc2ccccn2c1=O)c1ccccc1
AC50 (Cytochrome P450 2C9): 12.6 µM (inconclusive)

Nc1ccc(C(=O)N/N=C/c2ccccc2)cc1
AC50 (Cytochrome P450 2C9): 0.282 µM (inconclusive) | AC50 (Cytochrome P450 3A4): 15.8 µM (inconclusive) | AC50 (Cytochrome P450 2C19; read-out: AC50): 15.8 µM (inconclusive)

Cc1cccc(CNc2ncncc2-c2ccccc2C)c1
AC50 (Cytochrome P450 2C9): 1.26 µM (inconclusive)
